From patent publication US20100311756A1, “METHODS FOR DELAYING THE PROGRESSION OF AT LEAST ONE OF CARDIAC HYPERTROPHY, CARDIAC REMODELING OR LEFT VENTRICULAR FUNCTION OR THE ONSET OF HEART FAILURE IN SUBJECTS IN NEED OF TREATMENT THEREOF” (TAKEDA PHARMACEUTICALS NORTH AMERICA, INC., priority 2009, published 2010) come the findings set out here.

Molecules are shown by their SMILES.

This assay in a line: Serum uric acid level in rabbits (unpublished observations, 1998). It is filed as in vivo. The following applies: oral dose of 10 mg/kg. The source says: The procedures used in this study were reviewed and approved by the Institutional Animal Care and Use Committee (IACUC) of QTest Labs for compliance with regulations and current accepted practices. All applicable sections of the Final Rules of the Animal Welfare Act regulations (Section 9 CFR) and the Public Health Service Policy on Humane Care and Use of Laboratory Animals (OPRR, NIH, 1986) were followed. At the end of the study, all animals were humanely euthanized in accordance with accepted guidelines of the American Veterinary Medical Association (See, American Veterinary Medicine Association (AVMA), 2000 Report of the AVMA Panel on Euthanasia, The Journal of the American Veterinary Medical Association, 218(5):669-696 (2001)). • Drugs Febuxostat and allopurinol (Sigma-Aldrich, St. Louis, Mo., USA) were each formulated as a suspension in 0.5% methylcellulose (Sigma-Aldrich, St. Louis, Mo.) as the vehicle. The febuxostat oral dose of 10 mg/kg was estimated to provide a similar plasma level of febuxostat as the clinically efficacious dose (See, Khosravan et al., Clinical Pharmacokinetics, 45(8):821-841 (2006)). […] Allopurinol was given orally at 60 mg/kg. […] The rabbits were anesthetized with an intramuscular injection of ketamine (35 mg/kg)/xylazine (5 mg/kg) and pre-surgery enrofloxacin (12 mg/kg). […]

For the compound `Cc1nc(-c2ccc(OCC(C)C)c(C#N)c2)sc1C(=O)O` [febuxostat, 2-[3-cyano-4-(2-methylpropoxy)phenyl]-4-methylthiazole-5-carboxylic acid], the “Serum uric acid level” value is given as “significant reduction”.
